Like-named read-outs stand apart in the source and are kept apart here.
Assays:
hypoxic cells in culture = assay: Radiosensitivity in vitro: drug concentration giving a sensitizer enhancement ratio of 1.6; type: cell-based; details: concentration of drug necessary to produce a sensitizer enhancement ratio of 1.6 of hypoxic cells in culture
Source text: The results of assays to determine the concentration of drug necessary to produce a sensitizer enhancement ratio of 1.6 of hypoxic cells in culture are as follows: […]

[1] = Polarographic half-wave reduction potential; type: physicochemical; details: Britton & Robinson pH 7.4 buffer, dropping mercury electrode
HA-1 cells = assay: Hypoxic versus aerobic cytotoxicity from survival curves of HA-1 cells; type: cell-based; details: for cytotoxicity against hypoxic HA-1 tumor cells in vitro compared to 22 / RHT (Relative Hypoxic Cytoxicity): hypoxic conditions; for RHT (Relative Hypoxic Cytoxicity): ratio of equitoxic concentrations of 22:analog; for RHT (Relative Hypoxic Cytoxicity) / HCR (Hypoxic Cytoxicity Ratio): HA-1 cells; for HCR (Hypoxic Cytoxicity Ratio): ratio of equitoxic concentrations of each analog, hypoxic:aerobic conditions
Solubility = type: physicochemical
[2] = Octanol-water partition coefficient (method of Fujita et al.); type: physicochemical; details: pH 7.4 buffer
Determination of LD50 = type: in vivo; details: mouse, in vivo; Balb/c female mice 3 months of age; ip (or iv) injection
Description: (§1) LD50 is determined in BALB/c female mice (weighing 20-25 g) following intraperitoneal (ip) injection, unless the compound tested has low lipophilicity and is very soluble, wherein intravenous (iv) administration is used. LD50 values at 1, 2, 5, and 60 days are determined by administering graded doses of the drug dissolved in physiological saline immediately prior to injection.

BALB/c female mice = assay: Determination of LD50; type: in vivo; details: Balb/c female mice 3 months of age; ip (or iv) injection
Description: as §1

SCCVII carcinomas = assay: In vivo assay for activity in combination with radiation; parameters: species or system C3H mice; details: fixed radiation dose 20 Gy, 2 hr after to 3 hr before drug injection; FIG. 2
[3] = tested on: aerobic and hypoxic cells in culture (human, mouse, and hamster); assay: Cytotoxicity tests on aerobic and hypoxic cells in culture; type: cell-based
Description: The cells in spinner flasks were gassed for one hour at 37° C. with either air or nitrogen containing 5% CO2 prior to adding the specified amounts of the drug.

SCCVII tumor [4] = assay: Enhanced tumor cell toxicity using hydralazine; type: in vivo, mice; details: FIG. 3
Description: For this assay, SCCVII carcinomas in female C3H mice weighing 20-25 g were used. These mice were bred under specific pathogen-free conditions and were 3-4 months old at the beginning of each experiment. The SCCVII tumor was grown intradermally in the flank from an inoculation of 2×10^5 tumor cells taken from the 2nd-8th in vitro passage of the tumor cells after removal from the previous in vivo tumor. Two tumors per mouse were implanted, and were used as subject tumors when they reached a volume of approximately 100 ml. At this point the tumors contained approximately 20% hypoxic cells.
The amount of cell killing was judged by survival rate of dissected and cultured tumor cells as follows. The tumor-bearing mice were killed 24 hr after irradiation, and tumors were dissected from the skin, cut into several pieces, and made into a fine brei by high-speed chopping with a razor blade attached to a jigsaw. The brei was added to 30 ml of Hank's buffered salt solution (HBSS) containing 0.02% DNase, 0.05% promase, and 0.02% collagenase. The suspension was stirred for 30 min at 37° C., filtered, and centrifuged at 1,600 rmp for 10 min at 4° C. […] Suitable dilutions of this serum plated into 60- or 100-mm polystyrene petri dishes (Lux Scientific Corp) in 5 or 15 ml of medium. After incubation for 13 days, the colonies were fixed and stained, and those containing 50 cells or more were counted. […]

[5] = tested on: Chinese hamster ovary (CHO) cells; assay: Aerobic radiosensitization of CHO cells by hypoxic pre- or post-treatment; type: cell-based; details: for cell survival after drug treatment alone: 20 μM, hypoxic
Source text: The sensitization was predominantly a change in the slope of the radiation survival curve. Do decreased from 1.34 Gy (95% confidence limits: 1.09-1.76 Gy) to 0.80 Gy (95% confidence limits: 0.73-0.88 Gy), based on least-squares regression analysis of pooled data for the exponential portions of the survival curves for control and treated cells. However, sensitization at low radiation doses was also readily apparent.

SCCVII tumor [6] = assay: Fractionated radiotherapy of SCCVII tumors (8 x 2.5 Gy in four days); details: SR 2508 1000 mg/kg before each dose; for effect on growth delay of irradiated tumors: compound 22 0.08 mmole/kg alone before or with HDZ after irradiation, FIG. 6; for effect on radiation response, clonogenic tumor cell survival: compound 22 0.08 mmole/kg alone or with HDZ, FIG. 5
Source text: Our protocol was to use eight doses of 2.5 Gy/dose in four days (irradiating 2×/day). […] We used two different types of controls. […] We assayed the efficacies of the treatments using clonogenic cell survival and also regrowth delay.

Q: For `CCCCCCCCCCc1ccc2nc(N)n[n+]([O-])c2c1`, which melting point is on record?
A: The melting point was 177 °C (dec.).

Q: With `NC(=O)c1ccc2nc(N)n[n+]([O-])c2c1` as the compound, how does the melting point read?
A: Its melting point is 300 °C.

Q: With `CC(=NO)c1ccc2nc(N)n[n+]([O-])c2c1` as the compound, how does the melting point read?
A: The melting point was 278 °C (dec.).

Q: Which C1.6 (hypoxic cells in culture) does the source give for “6(7)-methoxy-3-amino-1,2,4-benzotriazine 1,4-dioxide” here?
A: Its C1.6 is “˜1.0 mM”.

Q: Which C1.6 (hypoxic cells in culture) does the source give for `[O-][n+]1nc(O)[n+]([O-])c2ccccc21` [3-hydroxy-1,2,4-benzotriazine 1,4-dioxide] here?
A: Its C1.6 is “˜2.0 mM”.

Q: For `Nc1nc2ccc(Cl)cc2[n+]([O-])n1` [7-chloro-3-amino-1,2,4-benzotriazine 1-oxide], which C1.6 (hypoxic cells in culture) is on record?
A: The C1.6 was 3.3 mM.

Q: Which results are given for `Nc1n[n+]([O-])c2cc([N+](=O)[O-])ccc2[n+]1[O-]` [Compound 14, 7-nitro-3-amino-1,2,4-benzotriazine 1,4-dioxide]?
A: E1/2 [1]: −133 mV; cytotoxicity against hypoxic HA-1 tumor cells in vitro compared to 22 (HA-1 cells): significantly enhanced cytotoxicity; RHT (Relative Hypoxic Cytoxicity) (HA-1 cells): 2; HCR (Hypoxic Cytoxicity Ratio) (HA-1 cells): 140

Q: With `CCN(CC)CCCNc1n[n+]([O-])c2ccccc2[n+]1[O-]` [Compound 18a, 3-(3-N,N-diethylaminopropylamino)-1,2,4-benzotriazine 1,4-dioxide] as the compound, how does the solubility (Solubility; read-out: Solubility) read?
A: The solubility was greater than 181 mM.

Q: And the logP [2]?
A: The logP was -1.34.

Q: And the E1/2 [1]?
A: Its E1/2 is −348 mV.

Q: And the “cytotoxicity against hypoxic HA-1 tumor cells in vitro compared to 22” value (HA-1 cells)?
A: The value was “significantly enhanced cytotoxicity”.

Q: And the LD50 (Determination of LD50)?
A: Its LD50 is 250 µmol/kg.

Q: Which solubility (Solubility) does the source give for `CCN(CC)CCNc1n[n+]([O-])c2cc([N+](=O)[O-])ccc2[n+]1[O-].Cl` [Compound 21, 7-nitro-3-(2-N,N-diethylaminoethylamino)-1,2,4-benzotriazine 1,4-dioxide hydrochloride] here?
A: The solubility was 96.40 mM.

Q: What about the “Log P” value [2] of the same compound?
A: The value was −0.20.

Q: And the E1/2 [1]?
A: The E1/2 was −140 mV.

Q: What about the “cytotoxicity against hypoxic HA-1 tumor cells in vitro compared to 22” value (HA-1 cells) of the same compound?
A: Its value is “significantly enhanced cytotoxicity”.

Q: And the “RHT (Relative Hypoxic Cytoxicity)” value (HA-1 cells)?
A: Its value is 3.

Q: And the “HCR (Hypoxic Cytoxicity Ratio)” value (HA-1 cells)?
A: The value was 211.

Q: And the LD50 (BALB/c female mice)?
A: Its LD50 is 0.40.

Q: Which results are given for `Nc1n[n+]([O-])c2ccccc2[n+]1[O-]` [Compound 22, 3-amino-1,2,4-benzotriazine 1,4-dioxide]?
A: tumor cell killing combined with radiation compared to radiation only (SCCVII carcinomas): enhanced cell killing compared to radiation only; drug concentration required under hypoxia for equal cell killing, as share of the aerobic concentration [3]: 1 to 2%; factor by which survival was reduced (SCCVII tumor [4]; combination with hydralazine): 10^3; cell killing in the SCCVII tumor, agent alone (SCCVII tumor [4]; single agent): neither hydralazine nor the aforementioned benzotriazine compound produced any significant cell killing; cell survival after drug treatment alone ([5]; 1.0 h preirradiation exposure): approximately 32%; cell survival after drug treatment alone ([5]; 1.5 h postirradiation treatment): 23%; cell survival after drug treatment alone ([5]; 1.5 h preirradiation exposure): ~19%; cell survival after drug treatment alone ([5]; 2.0 h preirradiation exposure): ~8%; cell survival after drug treatment alone ([5]; 2.5 h preirradiation exposure): ~2%; Do of the radiation survival curve of treated cells ([5]; pooled data of treated cells, control 1.34 Gy, 95% confidence limits 0.73-0.88 Gy): 0.80 Gy; effect on growth delay of irradiated tumors (SCCVII tumor [6]): large increase in effect compared to radiation or drug alone; effect on radiation response, clonogenic tumor cell survival (SCCVII tumor [6]): large enhancement of the radiation response

Q: For `O=C(Cn1ccnc1[N+](=O)[O-])NCCO` [SR 2508, reference compound], which “effect on growth delay of irradiated tumors” value (SCCVII tumor [6]) is on record?
A: Its value is “no radiosensitizing effect”.

Q: What about the “effect on radiation response, clonogenic tumor cell survival” value (SCCVII tumor [6]) of the same compound?
A: The value was “no effect”.

Reference: patent publication US6828321B2, “1,2,4-Benzotriazine oxides as radiosensitizers and selective cytotoxic agents” (priority 1986, dated 2004)
